From US20210254056A1, “IDENTIFICATION AND TARGETED MODULATION OF GENE SIGNALING NETWORKS” (CAMP4 THERAPEUTICS CORPORATION, priority 2017, published 2021)
Read-outs that look alike come from different tables or passages of the source.

Test system: hepatocytes
Assay: RNA-seq of hepatocytes treated with Phase III failure compounds
Details: for significant changes in gene expression: RNA-seq of Table 36, FPKM≥0.5, log 2(fold-change)≥1, q-value≤0.05; for significant modulation of expression of disease genes: q≤0.05, genes in the value or listed in the block
Description: RNA-seq was performed to determine the effects of the compounds on hepatocytes.
Significance was determined by the criteria of FPKM≥0.5, a log 2(fold-change)≥1, and a […].

SMILES: CNC1(C)[C@H]2CCC(C2)C1(C)C.Cl (stereo partly drawn) [S-(+)-MecaMylaMine Hydrochloride]
- significant changes in gene expression: not observed to cause any significant changes in gene expression
- significant modulation of expression of any of the genes analyzed (RNA-seq, p≤0.05, hepatocytes): not observed to significantly modulate expression

SMILES: Cn1cnc2c(F)c(Nc3ccc(Br)cc3Cl)c(C(=O)NOCCO)cc21 [Selumetinib]
- RNA-seq results, CYP2B6 expression: 0.38
- RNA-seq results, CYP2C19 expression: 0.76
- RNA-seq results, CYP2D6 expression: 0.03
- RNA-seq results, CYP3A4 expression: 0.08
- RNA-seq results, CYP7B1 expression: −0.15
- RNA-seq results, CYP39A1 expression: −0.27
- RNA-seq results: CYP2B6 expression: −0.08
- RNA-seq results: CYP2C19 expression: 0.1
- RNA-seq results: CYP2D6 expression: 0.16
- RNA-seq results: CYP3A4 expression: 0.11
- RNA-seq results: CYP7B1 expression: −0.3
- RNA-seq results: CYP39A1 expression: 0.08
- RNA-seq results: A1BG expression (gene A1BG, hepatocytes): 0.00
- RNA-seq results: AGTR1 expression (gene AGTR1, hepatocytes): −0.55
- RNA-seq results: AGXT expression (gene AGXT, hepatocytes): 0.22
- RNA-seq results: AHI1 expression (gene AHI1, hepatocytes): 0.01
- RNA-seq results: AMPD3 expression (gene AMPD3, hepatocytes): 0.22
- RNA-seq results: AMT expression (gene AMT, hepatocytes): 0.29
- RNA-seq results: ANGPTL3 expression (gene ANGPTL3, hepatocytes): −0.67
- RNA-seq results: ANKS4B expression (gene ANKS4B, hepatocytes): −0.06
- RNA-seq results: ANKS6 expression (gene ANKS6, hepatocytes): −0.02
- RNA-seq results: ANPEP expression (gene ANPEP, hepatocytes): 0.04
- RNA-seq results: AOC2 expression (gene AOC2, hepatocytes): 0.28
- RNA-seq results: APOA2 expression (gene APOA2, hepatocytes): −0.45
- RNA-seq results: APOA5 expression (gene APOA5, hepatocytes): 0.13
- RNA-seq results: APOB expression (gene APOB, hepatocytes): −0.10
- RNA-seq results: COG5 expression (gene COG5, hepatocytes): −0.14
- RNA-seq results: COG6 expression (gene COG6, hepatocytes): 0.1
- RNA-seq results: COL1A1 expression (gene COL1A1, hepatocytes): 0.41
- RNA-seq results: COX6A1 expression (gene COX6A1, hepatocytes): 0.02
- RNA-seq results: CP expression (gene CP, hepatocytes): 0.26
- RNA-seq results: CPS1 expression (gene CPS1, hepatocytes): 0.52
- RNA-seq results: CPT1A expression (gene CPT1A, hepatocytes): 0.19
- RNA-seq results: CPT2 expression (gene CPT2, hepatocytes): −0.2
- RNA-seq results: CROT expression (gene CROT, hepatocytes): −0.4
- RNA-seq results: CSPP1 expression (gene CSPP1, hepatocytes): −0.14
- RNA-seq results: CTC1 expression (gene CTC1, hepatocytes): 0.03
- RNA-seq results: CTDSP2 expression (gene CTDSP2, hepatocytes): −0.14
- RNA-seq results: CTH expression (gene CTH, hepatocytes): 0.67
- RNA-seq results: CTNS expression (gene CTNS, hepatocytes): 0.69
- RNA-seq results: CTSF expression (gene CTSF, hepatocytes): 0.19
- RNA-seq results: CTSK expression (gene CTSK, hepatocytes): 0.08
- RNA-seq results: CYB5A expression (gene CYB5A, hepatocytes): −0.09
- RNA-seq results: CYB5R3 expression (gene CYB5R3, hepatocytes): 0.1
- RNA-seq results: CYP27A1 expression (gene CYP27A1, hepatocytes): 0.14
- RNA-seq results: DAO expression (gene DAO, hepatocytes): −0.11
- RNA-seq results: DBT expression (gene DBT, hepatocytes): −0.16
- RNA-seq results: DCDC2 expression (gene DCDC2, hepatocytes): −1.04
- RNA-seq results: DCXR expression (gene DCXR, hepatocytes): 0.01
- RNA-seq results: FABP1 expression (gene FABP1, hepatocytes): 0.06
- RNA-seq results: FADD expression (gene FADD, hepatocytes): −0.08
- RNA-seq results: FAM111A expression (gene FAM111A, hepatocytes): 0.12
- RNA-seq results: FAM111B expression (gene FAM111B, hepatocytes): −1.27
- RNA-seq results: FAN1 expression (gene FAN1, hepatocytes): −0.37
- RNA-seq results: FARS2 expression (gene FARS2, hepatocytes): −0.21
- RNA-seq results: FASLG expression (gene FASLG, hepatocytes): −0.55
- RNA-seq results: FGA expression (gene FGA, hepatocytes): 0.07
- RNA-seq results: FGD1 expression (gene FGD1, hepatocytes): −0.4
- RNA-seq results: FGFR2 expression (gene FGFR2, hepatocytes): −0.97
- RNA-seq results: FIG4 expression (gene FIG4, hepatocytes): 0.29
- RNA-seq results: FIS1 expression (gene FIS1, hepatocytes): −0.06
- RNA-seq results: FTCD expression (gene FTCD, hepatocytes): 0.18
- RNA-seq results: FTH1 expression (gene FTH1, hepatocytes): 0.45
- RNA-seq results: FUCA1 expression (gene FUCA1, hepatocytes): 0.02
- RNA-seq results: FXN expression (gene FXN, hepatocytes): −0.33
- RNA-seq results: G6PC3 expression (gene G6PC3, hepatocytes): −0.17
- RNA-seq results: G6PC expression (gene G6PC, hepatocytes): 1.05
- RNA-seq results: G6PD expression (gene G6PD, hepatocytes): 0.7
- RNA-seq results: GALK1 expression (gene GALK1, hepatocytes): 0.05
- RNA-seq results: GALK2 expression (gene GALK2, hepatocytes): 0.08
- RNA-seq results: GALT expression (gene GALT, hepatocytes): 0.37
- RNA-seq results: GATA6 expression (gene GATA6, hepatocytes): −0.01
- RNA-seq results: GATM expression (gene GATM, hepatocytes): −0.21
- RNA-seq results: GBA expression (gene GBA, hepatocytes): 0.33
- RNA-seq results: GBE1 expression (gene GBE1, hepatocytes): 0.06
- RNA-seq results: GCH1 expression (gene GCH1, hepatocytes): 0.02
- RNA-seq results: GCKR expression (gene GCKR, hepatocytes): 0.43
- RNA-seq results: GCLC expression (gene GCLC, hepatocytes): 0.07
- RNA-seq results: GOSH expression (gene GOSH, hepatocytes): −0.26
- RNA-seq results: RRM2B (gene RRM2B, hepatocytes): −0.30
- RNA-seq results: RSAD1 (gene RSAD1, hepatocytes): −0.06
- RNA-seq results: SAMHD1 (gene SAMHD1, hepatocytes): −0.29
- RNA-seq results: SC5D (gene SC5D, hepatocytes): −0.23
- RNA-seq results: SCARB1 (gene SCARB1, hepatocytes): 0.08
- RNA-seq results: SCN9A (gene SCN9A, hepatocytes): 0.14
- RNA-seq results: SDCCAG8 (gene SDCCAG8, hepatocytes): −0.25
- RNA-seq results: SEPN1 (gene SEPN1, hepatocytes): −0.10
- RNA-seq results: SERAC1 (gene SERAC1, hepatocytes): −0.29
- RNA-seq results: SERPINA1 (gene SERPINA1, hepatocytes): 0.01
- RNA-seq results: SERPING1 (gene SERPING1, hepatocytes): −0.11
- RNA-seq results: SERPINI1 (gene SERPINI1, hepatocytes): −0.36
- RNA-seq results: SETBP1 (gene SETBP1, hepatocytes): 0.22
- RNA-seq results: SFXN4 (gene SFXN4, hepatocytes): −0.33
- RNA-seq results: SLC10A1 (gene SLC10A1, hepatocytes): 0.00
- RNA-seq results: SLC10A3 (gene SLC10A3, hepatocytes): 0.23
- RNA-seq results: SLC10A5 (gene SLC10A5, hepatocytes): 0.63
- RNA-seq results: SLC10A7 (gene SLC10A7, hepatocytes): −0.35
- RNA-seq results: SLC11A2 (gene SLC11A2, hepatocytes): −0.26
- RNA-seq results: SLC19A1 (gene SLC19A1, hepatocytes): −0.42
- RNA-seq results: SLC19A2 (gene SLC19A2, hepatocytes): 0.22
- RNA-seq results: SLC19A3 (gene SLC19A3, hepatocytes): 0.00
- RNA-seq results: SLC22A1 (gene SLC22A1, hepatocytes): −0.07
- RNA-seq results: SLC22A5 (gene SLC22A5, hepatocytes): 0.32
- RNA-seq results: SLC25A1 (gene SLC25A1, hepatocytes): 0.11
- RNA-seq results: SLC25A10 (gene SLC25A10, hepatocytes): −0.12
- RNA-seq results: SLC25A12 (gene SLC25A12, hepatocytes): −0.11
- RNA-seq results: SLC25A13 (gene SLC25A13, hepatocytes): −0.15
- RNA-seq results: SLC25A15 (gene SLC25A15, hepatocytes): −0.21
- RNA-seq results: SLC25A19 (gene SLC25A19, hepatocytes): −0.35
- RNA-seq results: SLC25A20 (gene SLC25A20, hepatocytes): −0.28
- RNA-seq results: SLC25A29 (gene SLC25A29, hepatocytes): 0.25
- RNA-seq results: SLC25A32 (gene SLC25A32, hepatocytes): −0.44

SMILES: CC(C)[C@H](O)C(=O)N[C@@H](C)C(=O)N[C@@H]1C(=O)N(C)CCc2ccccc21 [Semagacestat]
- Number (#) of genes having significantly changed expression (RNA-seq, Phase III failure compounds, hepatocytes, significance: FPKM≥0.5, log 2(fold-change)≥1, q-value≥0.05 (so in the source)): 9
- significant modulation of expression of disease genes (RNA-seq, hepatocytes): significantly (q≤0.05) modulate expression of CYP3A4
- B2M expression, RNA-seq result (gene B2M, hepatocytes): −0.06
- B9D2 expression, RNA-seq result (gene B9D2, hepatocytes): 0.10
- BAAT expression, RNA-seq result (gene BAAT, hepatocytes): 0.02
- BBOX1 expression, RNA-seq result (gene BBOX1, hepatocytes): −0.39
- BBS10 expression, RNA-seq result (gene BBS10, hepatocytes): −0.12
- BCHE expression, RNA-seq result (gene BCHE, hepatocytes): −0.07
- BCKDHB expression, RNA-seq result (gene BCKDHB, hepatocytes): 0.07
- BCKDK expression, RNA-seq result (gene BCKDK, hepatocytes): 0.00
- BCO1 expression, RNA-seq result (gene BCO1, hepatocytes): −0.09
- BCR expression, RNA-seq result (gene BCR, hepatocytes): −0.04
- BLNK expression, RNA-seq result (gene BLNK, hepatocytes): −0.03
- BLOC1S3 expression, RNA-seq result (gene BLOC1S3, hepatocytes): −0.02
- BMPR1A expression, RNA-seq result (gene BMPR1A, hepatocytes): 0.01
- BRAF expression, RNA-seq result (gene BRAF, hepatocytes): 0.30
- BSCL2 expression, RNA-seq result (gene BSCL2, hepatocytes): 0.05
- BTD expression, RNA-seq result (gene BTD, hepatocytes): −0.02
- C4A expression, RNA-seq result (gene C4A, hepatocytes): 0.16
- C9 expression, RNA-seq result (gene C9, hepatocytes): −0.11
- C10orf10 expression, RNA-seq result (gene C10orf10, hepatocytes): 0.01
- C10orf11 expression, RNA-seq result (gene C10orf11, hepatocytes): −0.27
- C15orf41 expression, RNA-seq result (gene C15orf41, hepatocytes): −0.28
- CA2 expression, RNA-seq result (gene CA2, hepatocytes): 0.59
- CA5A expression, RNA-seq result (gene CA5A, hepatocytes): −0.22
- CA12 expression, RNA-seq result (gene CA12, hepatocytes): 0.80
- CAV1 expression, RNA-seq result (gene CAV1, hepatocytes): −0.21
- CCND1 expression, RNA-seq result (gene CCND1, hepatocytes): −0.14
- CD46 expression, RNA-seq result (gene CD46, hepatocytes): −0.05
- CD81 expression, RNA-seq result (gene CD81, hepatocytes): −0.02
- CD320 expression, RNA-seq result (gene CD320, hepatocytes): −0.04
- CDAN1 expression, RNA-seq result (gene CDAN1, hepatocytes): −0.07
- CDH1 expression, RNA-seq result (gene CDH1, hepatocytes): 0.01
- CEP19 expression, RNA-seq result (gene CEP19, hepatocytes): −0.22
- CEP83 expression, RNA-seq result (gene CEP83, hepatocytes): −0.04
- CEP164 expression, RNA-seq result (gene CEP164, hepatocytes): −0.01
- CEP290 expression, RNA-seq result (gene CEP290, hepatocytes): 0.06
- CFB expression, RNA-seq result (gene CFB, hepatocytes): −0.07
- CFHR2 expression, RNA-seq result (gene CFHR2, hepatocytes): 0.01
- CHRM3 expression, RNA-seq result (gene CHRM3, hepatocytes): 0.08
- CIDEC expression, RNA-seq result (gene CIDEC, hepatocytes): 0.28
- CLDN1 expression, RNA-seq result (gene CLDN1, hepatocytes): −0.05
- COG1 expression, RNA-seq result (gene COG1, hepatocytes): 0.17

SMILES: CN[C@@]1(C)[C@@H]2CC[C@@H](C2)C1(C)C.Cl [TC-5214 (R-Mecamylamine hydrochloride), R-Mecamylamine hydrochloride]
- significant changes in gene expression: not observed to cause any significant changes in gene expression
- significant modulation of expression of disease genes (RNA-seq, hepatocytes): significantly (q≤0.05) modulate expression of GCSH
- log 2 fold change in expression of GCSH (RNA-seq, hepatocytes): −1.31

SMILES: CN[C@@]1(C)[C@@H]2CC[C@@H](C2)C1(C)C [TC-5214]
- Number (#) of genes having significantly changed expression: 30
